This assay relates to cells expressing the HSV-TK gene product. Kind of assay: Negative selection of pIRES-MAB-TK cultures with ganciclovir. It counts as cell-based, Chinese Hamster. To be noted: 5 days in the presence of ganciclovir, then an additional 10 days in growth media alone. The method, then:
For example, pIRES-MAB-TK cultures are grown for 5 days in the presence of the prodrug ganciclovir (Sigma), which kills cells expressing the HSV-TK gene product. After 5 days of negative selection, cells are grown for an additional 10 days in growth media alone at which time greater than 95% of cells die off. Resistant clones are then picked and expanded in 10 cm petri dishes. Cells are grown for 3 weeks, after which time a portion is reanalyzed for recombinant protein expression, for example, by western blot, RT-PCR, and/or PCR. DNA is analyzed for the presence of the pIRES-pro-TK or pIRES-MAB-TK vector by PCR using any set of primers that can specifically detect the presence or absence of the pIRES vector, for example, according to methods as previously described in Grasso et al. (1998).

SMILES strings stand for the structures.

In the case of `Nc1nc(O)c2ncn(COC(CO)CO)c2n1` [ganciclovir], the cells die off result is reported as “greater than 95%”.

For the origin of these results see patent US20060258007A1, “Regulated vectors for selection of cells exhibiting desired phenotypes” (priority 2005, published 2006).
